Test results taken from paper PMC10755004, “Pyrimidine salvage in Toxoplasma gondii as a target for new treatment” (Frontiers in Cellular and Infection Microbiology, 2023).
“And” between values parts separate entries of the source, which are not always exact repeats. Equal values may be shown once. Read-outs that look alike come from different tables or passages of the source.

Experiments:
[1] = tested on: T. gondii intracellular tachyzoites; test: Drug sensitivity assay for T. gondii tachyzoites in HFF cells (RFP fluorescence, 6 days); type: cell-based, Toxoplasma gondii; conditions: for effect on intracellular tachyzoites: concentrations up to 25 µM; for in vitro activity compared with sulfadiazine (in words): EC50 against T. gondii vs sulfadiazine; for EC50: intracellular tachyzoites in HFF, 6 days
Protocol: The in vitro inhibitory effects of antimicrobial nucleoside agents on T. gondii growth were determined in HFF cell cultures using 96-well black plates (Optical-Bottom Plates with Polymer Base, Thermo Fisher Scientific). 150 – 200 µL of HFF cells were seeded into 96-well black plates and incubated for 3-5 days at 37°C under 5% CO2 in a humidified incubator. Once the HFF cells became confluent the supernatant was discarded and replaced with 100 µL fresh DMEMc media. Sulfadiazine (positive control) and the nucleoside compounds were already dissolved in DMSO at known concentrations, usually prepared as 10 mM. After that, every compound was diluted in DMEMc at 4x final concentration. The assays were performed in duplicate or triplicate throughout. 100 µL of 4x compounds were transferred to the wells of the first column of a 96-well black plate of which each well contained HFF cells in 100 µL DMEMc. The compounds were mixed, and 100 µL was transferred using the multichannel pipette to the next column before being transferred to each column through the entire plate over one row, leaving the last column as a negative control without drug. After that, naturally, freshly egressed parasites were collected and filtered through a 3-µm filter (Sigma-Aldrich). ~1000 parasites/well were added in 100 µL DMEMc (giving a total volume of 200 µL/well) and incubated for 6 days at a 37°C/5% CO2 in a humidified incubator. On day 6, a PHERAstar plate reader (BMG Labtech, Germany) was used to read the fluorescence intensity at 540 nm for excitation and 590 nm for emission. The EC50 values and fluorescence data were determined and plotted by using Prism 8.0 (GraphPad). Each experiment was independently performed 3-5 times.
Most published protocols for in vitro drug screening against T. gondii use the MTT assay, which is a colorimetric assay that relies on tetrazolium salt and is used for accessing cell viability, cell proliferation and cytotoxicity for the host cells ([Jin et al., 2012]). Our protocol is an adaptation from a method that was used to evaluate antiretroviral compounds against T. gondii tachyzoites ([Wang et al., 2019]). These authors added 5×10^4 cells/mL freshly egressed tachyzoites to each well of a 96-well plate with an HFF cell monolayer, followed by incubation for 4 h to allow the cells to invade the host cells; the medium containing extracellular tachyzoites was then removed and fresh medium containing the desired concentration of the antiretroviral drugs was added to the wells and incubated for 5 days at 37°C and 5% CO2 in a humidified incubator ([Wang et al., 2019]). In our adaptation of this protocol, we aimed to eliminate the step of wash/removal of tachyzoites, in order to increase reproducibility. We thus prepared the serial dilutions of compounds in the 96-well plates containing the HFF monolayer cells and then added the lower number of 1×10^4 cells/mL freshly lysed tachyzoites to the 96-well plates, already containing both the HFF monolayer cells and tested compounds. The plates were then incubated for 6 days at 37°C and 5% CO2 in a humidified incubator. A major advantage that was introduced was detection of T. gondii in the wells, which was achieved by measuring fluorescence of the RFP-expressing parasites.

[2] = molecular target: uridine/uracil transporter 1 (TgUUT1); test: Transport of 0.1 µM [3H]-uridine into extracellular T. gondii tachyzoites (oil-stop technique); type: cell-based, Toxoplasma gondii; conditions: for Ki: inhibition of 0.1 µM [3H]-uridine transport; for δ(ΔG^0): loss of binding energy compared with uridine; for inhibition of [3H]-uridine uptake: 0.1 µM [3H]-uridine, 5 min; for Gibbs free energy of binding: from Km/Ki on [3H]-uridine transport; for Km: 0.1 µM label, tachyzoites, n=3
[3] = tested on: HFF cells; test: cells; conditions: Homo sapiens, 144 h
[4] = tested on: HFF cells; conditions: for S.I.: selectivity index, HFF cytocidal EC50/tachyzoite EC50; for EC50: read-out: HFF ctotoxicity EC50 Cytostatic, uninfected HFF, 6 days
[5] = tested on: T. gondii; test: Mouse model of acute toxoplasmosis, parasite burden in lung by qPCR; type: in vivo, C57BL/6J mice; conditions: pyrimidines 25 mg/kg i.p., sulfadiazine oral in water, lung parasite burden day 10
[6] = tested on: uridine/uracil transporter 1 (TgUUT1); test: Transport of 0.1 µM [3H]-uracil into extracellular T. gondii tachyzoites (oil-stop technique); type: cell-based, Toxoplasma gondii; conditions: for Ki: inhibition of 0.1 µM [3H]-uracil transport
[7] = tested on: TgAT1; design: method as in Chiang et al., 1999; conditions: TgAT1 expressed in X. laevis oocytes; ref Chiang et al., 1999; cited from earlier work
[8] = tested on: T. gondii tachyzoites; test: Uptake of tritiated pyrimidines by T. gondii tachyzoites over time; type: cell-based, Toxoplasma gondii
[9] = tested on: T. gondii; design: method as in el Kouni et al., 1999; conditions: ref el Kouni et al., 1999; read-out: EC50 against T. gondii; cited from earlier work
[10] = read-out: HFF ctotoxicity EC50 Cytostatic
[11] = read-out: HFF ctotoxicity EC50 Cytostatic (second column)

In the case of `O=c1ccn([C@H]2CC[C@@H](CO)O2)c(=O)[nH]1` [2’,3’-dideoxyuridine], the “effect on intracellular tachyzoites” value [1] is reported as “no effect”.
In the case of `O=c1ccn([C@H]2C[C@H](O)[C@@H](CO)O2)c(=O)[nH]1` [2’-Deoxyuridine], the “effect on intracellular tachyzoites” value [1] is reported as “no effect”, the Ki [2] is reported as 134 ± 31 µM and the “δ(ΔG^0)” value [2] is reported as 2.15 kcal/mol and 2.17 kcal/mol.
In the case of `Cc1cn([C@H]2CC[C@@H](CO)O2)c(=O)[nH]c1=O` [3’-deoxythymidine], the “effect on intracellular tachyzoites” value [1] is reported as “no effect”.
For `O=c1[nH]c(=O)n([C@H]2C[C@H](O)[C@@H](CO)O2)cc1F` [5-F,2’dUrd, 5-fluoro-2’deoxyuridine], the “in vitro activity compared with sulfadiazine (in words)” value [1] was “well below”, the EC50 ([1]; Toxoplasma gondii, 144 h) was 0.67 ± 0.07 µM and the EC50 [3, 10] was 0.19 ± 0.05 µM. For the same molecule, the EC50 [3, 11] was 1480 ± 510 µM, the S.I. [4] was 2205 and the “efficacy against acute toxoplasmosis, comparison between treatments” value (shortened to “efficacy against acute toxoplasmosis”) [5] was “significantly less effective”. The “efficacy against acute toxoplasmosis” value ([5]; listed as 5F,2’-deoxyuridine) was “similarly effective as sulfadiazine”.
For `O=c1[nH]cc(F)c(=O)[nH]1` [5-FU, 5-fluorouracil], the “δ(ΔG^0)” value ([6]; 5-FU Ki compared to uracil Km) was 0.717 kcal/mol, the Ki [6] was 6.8 ± 2.12 µM and the “in vitro activity compared with sulfadiazine (in words)” value [1] was “well below”. It also gave an EC50 ([1]; Toxoplasma gondii, 144 h) of 1.13 ± 0.16 µM, a Ki [2] of 5.24 ± 0.72 µM and an EC50 [3, 10] of 2.49 ± 0.43 µM. For the same molecule, the EC50 [3, 11] was 3070 ± 340 µM, the S.I. [4] was 2720 and the “efficacy against acute toxoplasmosis” value [5] was “not significantly different from sulfadiazine”. The “efficacy against acute toxoplasmosis” value ([5]; listed as 5F-uracil) was “similarly effective as sulfadiazine”.
With `O=c1[nH]c(=O)n([C@@H]2O[C@H](CO)[C@@H](O)[C@H]2O)cc1F` [5-FUrd, 5-Flourouridine] the “in vitro activity compared with sulfadiazine (in words)” value [1] was “well below”, the EC50 [1] was 0.45 ± 0.02 µM and the EC50 ([4]; first (low concentration) phase, growth inhibition) was 0.11 ± 0.1 µM. The EC50 ([4]; second phase (cytocidal per footnote and text)) was 20.4 ± 1 µM and the S.I. [4] was 45.
With `Cc1cn([C@@H]2O[C@H](CO)[C@@H](O)[C@H]2O)c(=O)[nH]c1=O` [5-Methyluridine] the Ki [2] was 2380 ± 774 µM.
In the case of `C[C@H]1O[C@@H](n2ccc(=O)[nH]c2=O)[C@H](O)[C@@H]1O` [5’-deoxyuridine], the “effect on intracellular tachyzoites” value [1] is reported as “no effect”.
In the case of `Nc1ncnc2c1ncn2[C@@H]1O[C@H](CO)[C@@H](O)[C@H]1O` [Adenosine], the Km [7] is listed as 114 µM, the “inhibition of TgUUT1 uridine uptake” value ([2]; 2500-fold excess of unlabeled inhibitor) is listed as ~ 70% and the Ki [2] is listed as 112 ± 6 µM.
With `Nc1ncnc2c1ncn2[C@@H]1O[C@H](CO)[C@@H](O)[C@@H]1O` [Ara-A, adenine arabinoside] the EC50 [1] was 11.4 ± 1.8 µM.
For `Nc1ccn([C@@H]2O[C@H](CO)[C@@H](O)[C@H]2O)c(=O)n1` [Cytidine], the Rate of uptake ([8]; 0.20 µM radiolabel) was 0.0029 ± 0.0004 pmol(10^7 cells)^-1min^-1 and the Rate of uptake ([8]; 0.20 µM radiolabel, listed as [^3H]-cytidine) was 0.0029 pmol(10^7 cells)^-1min^-1.
For `O=c1[nH]cnc2c1ncn2[C@@H]1O[C@H](CO)[C@@H](O)[C@H]1O` [Inosine], the Ki [2] was 28.2 ± 4.1 µM.
For `O=[N+]([O-])c1ccc(CSc2ncnc3c2ncn3[C@@H]2O[C@H](CO)[C@@H](O)[C@H]2O)cc1` [NBMPR], the EC50 [1] is given as 3.19 ± 0.14 µM and the EC50 [9] is given as 10.2 µM.
`CCc1nc(N)nc(N)c1-c1ccc(Cl)cc1` [Pyrimethamine] gave an EC50 ([1]; Toxoplasma gondii, 144 h) of 16.2 µM.
Molecule `Nc1ccc(S(=O)(=O)Nc2ncccn2)cc1` [Sulfadiazine] has an EC50 ([1]; Toxoplasma gondii, 144 h) of 12.4 ± 1.08 µM.
With `Cc1cn([C@H]2C[C@H](O)[C@@H](CO)O2)c(=O)[nH]c1=O` [Thymidine] the “inhibition of [3H]-uridine uptake” value ([2]; 250 µM inhibitor) was “somewhat inhibited”, the “Gibbs free energy of binding” value [2] was -4.09 kcal/mol and the Ki [2] was 1010 ± 145 µM. For the same molecule, the “δ(ΔG^0)” value [2] was 3.37 kcal/mol and 3.39 kcal/mol, the “inhibition of [3H]-thymidine uptake” value ([8]; 0.25 µM [3H]-thymidine over 10 min, 1 mM unlabeled inhibitor) was “did not significantly inhibit” and the Rate of uptake ([8]; 0.25 µM radiolabel, over 10 min) was 0.00071 ± 0.00016 pmol(10^7 cells)^-1min^-1.
For `O=c1cc[nH]c(=O)[nH]1` [Uracil], the Vmax ([6]; [3H]-uracil as substrate) was 0.166 pmol(10^7 cells)^-1 min^-1, the Km ([6]; [3H]-uracil as substrate, 0.1 µM label, tachyzoites, n=3) was 2.05 ± 0.4 µM and the “inhibition of [3H]-uridine uptake” value ([2]; 250 µM inhibitor) was 80%. The Ki [2] was 1.15 ± 0.07 µM, the Rate of uptake ([8]; 0.10 µM radiolabel) was 0.026 ± 0.0014 pmol(10^7 cells)^-1min^-1 and the Rate of uptake ([8]; 0.10 µM radiolabel, listed as [^3H]-uracil) was 0.026 pmol(10^7 cells)^-1min^-1.
With `O=c1ccn([C@@H]2O[C@H](CO)[C@@H](O)[C@H]2O)c(=O)[nH]1` [Uridine] the Ki [6] was 2.44 ± 0.59 µM, the “inhibition of [3H]-uridine uptake” value ([2]; 1 mM unlabeled inhibitor) was 90% and the Vmax ([2]; [3H]-uridine as substrate) was 1.21 ± 0.24 pmol(10^7 cells)^-1 min^-1. The Km ([2]; [3H]-uridine as substrate, listed as [^3H]-uridine) was 3.34 ± 0.82 µM, the Km ([2]; [3H]-uridine as substrate, listed as uridine) was 3.3 ± 0.8 µM and the “Gibbs free energy of binding” value [2] was -7.46 kcal/mol. The Rate of uptake ([8]; 0.10 µM radiolabel) was 0.011 ± 0.0006 pmol(10^7 cells)^-1min^-1, the “inhibition of [3H]-cytidine uptake” value ([8]; 0.2 µM [3H]-cytidine, 1 mM unlabeled inhibitor) was “fully inhibited” and the “inhibition of [3H]-thymidine uptake” value ([8]; 0.25 µM [3H]-thymidine, 250 µM inhibitor) was “did not inhibit”. The inhibition at 250 µM ([8]; Toxoplasma gondii, [3H]-cytidine, 250 µM inhibitor) was 100%.
